# Key:
# S. aureus ATCC 29213 = assay: MIC vs. S. aureus ATCC 29213; assay type: cell-based, Staphylococcus aureus; parameters: unit not given beside the values; settings: Incubated at 37° C. overnight
# Text: (§1) Tables 2 and 2a summarize the minimal inhibitory concentrations (MIC's) at which illustrative formula I compounds and cephalothin inhibit certain microorganisms that are associated with mastitis, such as Staphylococcus aureus 10092 (Newbould strain).
# S. aureus 174 C = assay: MIC vs. S. aureus 174 C; assay type: cell-based, Staphylococcus aureus; parameters: unit not given beside the values; settings: Incubated at 37° C. overnight
# Text: as §1
# [1] = tested on: Staphylococcus aureus 10092 (Newbould strain); assay: MIC vs. S. aureus 10092 (Newbould strain); assay type: cell-based; parameters: unit not given beside the values; settings: Table 2a
# Text: as §1
# S. aureus F1C = assay: MIC vs. S. aureus F1C; assay type: cell-based, Staphylococcus aureus; parameters: unit not given beside the values; settings: Incubated at 37° C. overnight
# Text: as §1
# [2] = tested on: Streptococcus uberis 150 L; assay: MIC vs. Streptococcus uberis 150 L; assay type: cell-based; parameters: unit not given beside the values; settings: Incubated at 37° C. overnight
# Text: as §1
# [3] = tested on: Streptococcus uberis 166 L; assay: MIC vs. Streptococcus uberis 166 L; assay type: cell-based; parameters: unit not given beside the values; settings: Incubated at 37° C. overnight
# Text: as §1
# [4] = tested on: Streptococcus agalactiae 150 B; assay: MIC vs. Streptococcus agalactiae 150 B; assay type: cell-based; parameters: unit not given beside the values; settings: Incubated at 37° C. overnight
# Text: as §1
# [5] = tested on: Streptococcus dysgalactiae; assay: MIC vs. Streptococcus dysgalactiae; assay type: cell-based; parameters: unit not given beside the values; settings: Incubated at 37° C. overnight
# Text: as §1
# [6] = tested on: Staphylococcus epidermidis 174B; assay: MIC vs. Staphylococcus epidermidis 174B; assay type: cell-based; parameters: unit not given beside the values; settings: Table 2a
# Text: as §1
# [7] = tested on: Staphylococcus aureus 168H; assay: MIC vs. Staphylococcus aureus 168H; assay type: cell-based; parameters: unit not given beside the values; settings: Table 2a
# Text: as §1
# [8] = tested on: Streptococcus agalactiae 150G; assay: MIC vs. Streptococcus agalactiae 150G; assay type: cell-based; parameters: unit not given beside the values; settings: Table 2a
# Text: as §1
# [9] = tested on: Streptococcus uberis 167I; assay: MIC vs. Streptococcus uberis 167I; assay type: cell-based; parameters: unit not given beside the values; settings: Table 2a
# Text: as §1
# [10] = tested on: Streptococcus dysgalactiae 152B; assay: MIC vs. Streptococcus dysgalactiae 152B; assay type: cell-based; parameters: unit not given beside the values; settings: Table 2a
# Text: as §1
# [11] = tested on: Staphylococcus aureus 170C; assay: MIC vs. Staphylococcus aureus 170C; assay type: cell-based; parameters: unit not given beside the values; settings: Table 2a
# Text: as §1
# Streptococcus faecalis = assay: MIC vs. Streptococcus faecalis; assay type: cell-based; parameters: unit not given beside the values; settings: Table 2a
# Text: as §1
# [12] = tested on: Pasteurella multocida 108E (bovine); assay: MIC vs. Pasteurella multocida 108E (bovine); assay type: cell-based; settings: Incubated at 37° C. overnight
# Text: (§2) The formula I compounds are also active against certain Gram-negative species. Tables 3 and 3a show the MIC's of Formula I compounds against certain Gram-negative species.
# [13] = tested on: Pasteurella multocida ATCC 12945; assay: MIC vs. Pasteurella multocida ATCC 12945; assay type: cell-based; settings: Incubated at 37° C. overnight
# Text: as §2
# [14] = tested on: Pasteurella multocida 1051 (swine); assay: MIC vs. Pasteurella multocida 1051 (swine); assay type: cell-based; settings: Incubated at 37° C. overnight
# Text: as §2
# [15] = tested on: Pasteurella multocida 10,102 (bovine); assay: MIC vs. Pasteurella multocida 10,102 (bovine); assay type: cell-based; settings: Incubated at 37° C. overnight
# Text: as §2
# [16] = tested on: Pasteurella haemolytica 114F (bovine); assay: MIC vs. Pasteurella haemolytica 114F (bovine); assay type: cell-based; settings: Incubated at 37° C. overnight
# Text: as §2
# [17] = tested on: Pasteurella haemolytica 128K (bovine); assay: MIC vs. Pasteurella haemolytica 128K (bovine); assay type: cell-based
# Text: as §2
# [18] = tested on: Pasteurella haemolytica 129R (bovine); assay: MIC vs. Pasteurella haemolytica 129R (bovine); assay type: cell-based; settings: Incubated at 37° C. overnight
# Text: as §2
# Salmonella typhimurium = assay: MIC vs. Salmonella typhimurium; assay type: cell-based; settings: Incubated at 37° C. overnight
# Text: as §2
# Escherichia coli = assay: MIC vs. Escherichia coli; assay type: cell-based; parameters: unit not given beside the values; settings: Incubated at 37° C. overnight
# Text: as §2
compound,measurement,setting,value
"CC(=O)OCC1=C(C(=O)O)N2C(=O)[C@@H](NC(=O)Cc3cccs3)[C@H]2SC1 [Cephalothin, reference compound]",MIC vs. S. aureus ATCC 29213,S. aureus ATCC 29213,0.25
same,MIC vs. S. aureus 174 C,S. aureus 174 C,0.25
same,"MIC vs. Staphylococcus aureus 10,092",[1],0.5
same,MIC vs. S. aureus F1C,S. aureus F1C,0.25
same,MIC vs. Streptococcus uberis 150 L,[2],0.125
same,MIC vs. Streptococcus uberis 166 L,[3],0.0625
same,MIC vs. Streptococcus agalactiae 150 B,[4],0.125
same,MIC vs. Streptococcus dysgalactiae,[5],0.0625-0.125
same,MIC vs. Staphylococcus epidermidis 174B,[6],0.5
same,MIC vs. Staphylococcus aureus 168H,[7],0.5
same,MIC vs. Streptococcus agalactiae 150G,[8],0.5
same,MIC vs. Streptococcus uberis 167I,[9],32
same,MIC vs. Streptococcus dysgalactiae 152B,[10],0.5
same,MIC vs. Staphylococcus aureus 170C,[11],0.5
same,MIC vs. Streptococcus faecalis,Streptococcus faecalis,16
same,MIC vs. Pasteurella multocida 108E (bovine),[12],0.5
same,MIC vs. Pasteurella multocida ATCC 12945,[13],0.25
same,MIC vs. Pasteurella multocida 1051 (swine),[14],0.25
same,"MIC vs. Pasteurella multocida 10,102 (bovine)",[15],0.5
same,MIC vs. Pasteurella haemolytica 114F (bovine),[16],1
same,MIC vs. Pasteurella haemolytica 128K (bovine),"[17]; Table 3, incubated at 37° C. overnight",0.5
same,MIC against Pasteurella haemolytica Strain 128K,"[17]; Table 3a, incubated at 37° overnight",1
same,MIC vs. Pasteurella haemolytica 129R (bovine),[18],1
same,MIC vs. Salmonella typhimurium,Salmonella typhimurium,4
same,MIC vs. Escherichia coli,Escherichia coli,8

# From patent US6369049B1, “Treatment of mastitis” (Eli Lilly and Company, priority 1998, dated 2002)
